# Laboratory results as given in patent publication US20190030036A1, “PHOSPHODIESTERASE INHIBITOR TREATMENT” (Cyrano Therapeutics, Inc., priority 2013, published 2019).
# Marks after values point to notes of the source that are not given here.
# Test system: patients with hyposmia
# Test: Smell function (DT, RT, ME, H) by forced-choice, three-stimuli, stepwise-staircase technique with four odors; open trial of oral theophylline
# Assay type: in vivo, human
# Description: Patients initially reported their sensory dysfunction as either loss of taste (e.g., flavor) and/or smell function. This subjective response was documented by objective psychophysical measurements of olfactory function administered to each patient by use of a forced-choice, three-stimuli, stepwise-staircase technique in a fixed, controlled design (1, 53). Efficacy of this technique and results of testing were previously documented in a double-blind clinical trial (53). Four odors were used; they were pyridine (dead-fish odor), nitrobenzene (bitter-almond odor), thiophene (petroleum-like odor) and amyl acetate (banana-oil odor). Detection thresholds (DT), recognition thresholds (RT) and magnitude estimation (ME) values for each odor were determined as previously described (1, 53). Thresholds were converted into bottle units (BU) as previously described (53) and results reported as M±SEM of correct responses for each odor in each treatment group; ME was reported in % and results calculated to obtain M±SEM for each treatment group for all correct responses using data for the four highest odor concentrations presented (from 10^−2M—an absolute odor concentration).
# In addition, each patient graded the hedonic (H) value of each odor presented for these same odor concentrations (from 10^−2M—an absolute odor concentration using a −100−0−+100 scale). […] Results were obtained by calculating the arithmetical sum of each correct recognition response for each odor with respect to its pleasantness, unpleasantness or neutrality. Arithmetic M±SEM were obtained for each treatment group for each odor presented.
# After determination of hyposmia, patients were treated in an open label, fixed design, controlled open trial. Patients were given an oral extended release theophylline in divided daily doses taken in the middle of breakfast and lunch. All patients were initially given 200 mg of theophylline; changes in this dose were made based upon subjective responses to therapy. If at a subsequent return visit, patients reported ≥5% subjective improvement in overall smell function, they continued on this same dose of theophylline and were reevaluated after four to six months of continued treatment. Results from any subsequent return from these improved patients were not included in any subsequent data report. All subsequent comparisons between treated and untreated patients were made only between those patients continuing in the study compared to their own measurements obtained in the untreated state. If patients reported <5% subjective improvement, their theophylline dose was increased by 200 mg daily and they were scheduled for retesting at the study site after two to four months at this new dosage. For patients that reported <5% improvement, this sequence continued until patients reached 800 mg of theophylline, at which time the study was considered completed.
# Patients returned for reevaluation after two to four months of treatment. Measurements of blood serum theophylline were measured by a fluorescence polarization assay (Abbott, Chicago, Ill.). At this time, subjective changes in smell function were measured independently (compared to patient's memory of previous normal smell function monitored by use of the patients' daily measurements) using the scale from −100−0-+100 previously described. After independently recording their subjective responses, smell function was measured for all four odors with DT, RT, ME and H determined without recourse to prior measurements.
# Since data for all measurements from each patient group (local or distant) on each dose level were combined mean and SEM for each measurement (DT, RT, ME, H) of smell function for each treatment group were calculated on this basis. Differences in measurements between before treatment and each treatment level were calculated and significance of differences estimated using Student t tests (values p<0.05 considered significant). […]
# [1] = pyridine, oral theophylline 200 mg
# [2] = pyridine, oral theophylline 200 mg daily, all patients (199)
# [3] = pyridine, oral theophylline 200 mg, Type I hyposmia (57)
# [4] = pyridine, oral theophylline 200 mg, Type II hyposmia (138)
# [5] = pyridine, oral theophylline 200 mg, Type III hyposmia (4)
# [6] = pyridine, oral theophylline 400 mg
# [7] = pyridine, oral theophylline 400 mg daily, all patients (120)
# [8] = pyridine, oral theophylline 400 mg, Type I hyposmia (33)
# [9] = pyridine, oral theophylline 400 mg, Type II hyposmia (85)
# [10] = pyridine, oral theophylline 400 mg, Type III hyposmia (2)
# [11] = pyridine, oral theophylline 600 mg daily, all patients (160)
# [12] = pyridine, oral theophylline 600 mg, Type I hyposmia (51)
# [13] = pyridine, oral theophylline 600 mg, Type II hyposmia (105)
# [14] = pyridine, oral theophylline 600 mg, Type III hyposmia (4)
# [15] = pyridine, oral theophylline 800 mg daily, all patients (28)
# [16] = pyridine, oral theophylline 800 mg, Type I hyposmia (12)
# [17] = pyridine, oral theophylline 800 mg, Type II hyposmia (16)
# [18] = thiophene, oral theophylline 200 mg
# [19] = thiophene, oral theophylline 200 mg daily, all patients (199)
# [20] = thiophene, oral theophylline 200 mg, Type I hyposmia (57)
# [21] = thiophene, oral theophylline 200 mg, Type II hyposmia (138)
# [22] = thiophene, oral theophylline 200 mg, Type III hyposmia (4)
# [23] = thiophene, oral theophylline 400 mg
# [24] = thiophene, oral theophylline 400 mg daily, all patients (120)
# [25] = thiophene, oral theophylline 400 mg, Type I hyposmia (33)
# [26] = thiophene, oral theophylline 400 mg, Type II hyposmia (85)
# [27] = thiophene, oral theophylline 400 mg, Type III hyposmia (2)
# [28] = thiophene, oral theophylline 600 mg daily, all patients (160)
# [29] = thiophene, oral theophylline 600 mg, Type I hyposmia (51)
# [30] = thiophene, oral theophylline 600 mg, Type II hyposmia (105)
# [31] = thiophene, oral theophylline 600 mg, Type III hyposmia (4)
# [32] = thiophene, oral theophylline 800 mg daily, all patients (28)
# [33] = thiophene, oral theophylline 800 mg, Type I hyposmia (12)
# [34] = thiophene, oral theophylline 800 mg, Type II hyposmia (16)
smiles,measurement,setting,value
Cn1c(=O)c2[nH]cnc2n(C)c1=O [theophylline],total mean increase of ME for all odors,oral theophylline 600 mg,6.9%
same,decrease of H for pyridine,oral theophylline 800 mg daily,55%
same,decrease of H for thiophene,oral theophylline 800 mg daily,37%
same,increase of H for amyl acetate,oral theophylline 800 mg daily,about 50%
same,increase of H for nitrobenzene,oral theophylline 800 mg daily,about 50%
same,decrease of H values,[1],2%
same,increase of ME values,[1],6%
same,"DT, detection threshold",[2],7.6 ± 0.2^a BU
same,"H, hedonic estimation",[2],−22 ± 2^a %
same,"ME, magnitude estimation",[2],28 ± 2^a %
same,"RT, recognition threshold",[2],9.0 ± 0.2^a BU
same,"DT, detection threshold",[3],9.5 ± 0.2^ BU
same,"H, hedonic value",[3],−8 ± 2^a %
same,"ME, magnitude estimation",[3],11 ± 2^a %
same,"RT, recognition threshold",[3],11.0 ± 0.2^a BU
same,"DT, detection threshold",[4],6.9 ± 0.2^ BU
same,"H, hedonic value",[4],−28 ± 2^ %
same,"ME, magnitude estimation",[4],35 ± 2^ %
same,"RT, recognition threshold",[4],8.2 ± 0.2^a BU
same,"DT, detection threshold",[5],4.0 ± 0.6 BU
same,"H, hedonic value",[5],−40 ± 13%
same,"ME, magnitude estimation",[5],45 ± 11%
same,"RT, recognition threshold",[5],5.2 ± 0.5 BU
same,ME increases,[6],12%
same,increases in H values,[6],9%
same,"DT, detection threshold",[7],7.0 ± 0.3^c BU
same,"H, hedonic estimation",[7],−26 ± 3^b %
same,"ME, magnitude estimation",[7],33 ± 3^a %
same,"RT, recognition threshold",[7],8.5 ± 0.3^a BU
same,"DT, detection threshold",[8],8.8 ± 0.5^ BU
same,"H, hedonic value",[8],−7 ± 3^a %
same,"ME, magnitude estimation",[8],12 ± 3^a %
same,"RT, recognition threshold",[8],10.6 ± 0.4^ BU
same,"DT, detection threshold",[9],6.3 ± 0.3^a BU
same,"H, hedonic value",[9],−34 ± 3^ %
same,"ME, magnitude estimation",[9],41 ± 3^a %
same,"RT, recognition threshold",[9],7.7 ± 0.3^a BU
same,"DT, detection threshold",[10],5.0 BU
same,"H, hedonic value",[10],−40%
same,"ME, magnitude estimation",[10],45%
same,"RT, recognition threshold",[10],5.0 BU
same,"DT, detection threshold",[11],7.4 ± 0.2^c BU
same,"H, hedonic estimation",[11],−19 ± 2^ %
same,"ME, magnitude estimation",[11],26 ± 2^d %
same,"RT, recognition threshold",[11],9.4 ± 0.2^c BU
same,"DT, detection threshold",[12],8.9 ± 0.3^b BU
same,"H, hedonic value",[12],−8 ± 2^a %
same,"ME, magnitude estimation",[12],11 ± 3^a %
same,"RT, recognition threshold",[12],10.9 ± 0.3^ BU
same,"DT, detection threshold",[13],6.7 ± 0.3^a BU
same,"H, hedonic value",[13],−25 ± 3^ %
same,"ME, magnitude estimation",[13],33 ± 2^ %
same,"RT, recognition threshold",[13],8.9 ± 0.3^ BU
same,"DT, detection threshold",[14],3.8 ± 0.9 BU
same,"H, hedonic value",[14],−26 ± 22%
same,"ME, magnitude estimation",[14],41 ± 15%
same,"RT, recognition threshold",[14],5.5 ± 0.9 BU
same,"DT, detection threshold",[15],6.9 ± 0.6 BU
same,"H, hedonic estimation",[15],−22 ± 6%
same,"ME, magnitude estimation",[15],29 ± 5%
same,"RT, recognition threshold",[15],8.5 ± 0.6^c BU
same,"DT, detection threshold",[16],9.6 ± 0.8^ BU
same,"H, hedonic value",[16],−11 ± 5^a %
same,"ME, magnitude estimation",[16],10 ± 4^a %
same,"RT, recognition threshold",[16],10.3 ± 1.0^ BU
same,"DT, detection threshold",[17],4.7 ± 0.7^a BU
same,"H, hedonic value",[17],−31 ± 9^ %
same,"ME, magnitude estimation",[17],43 ± 5^c %
same,"RT, recognition threshold",[17],7.1 ± 0.7^a BU
same,decrease of H values,[18],2%
same,increase of ME values,[18],5%
same,"DT, detection threshold",[19],7.5 ± 0.2^c BU
same,"H, hedonic estimation",[19],−15 ± 2^d %
same,"ME, magnitude estimation",[19],21 ± 2 ^ %
same,"RT, recognition threshold",[19],9.1 ± 0.2^c BU
same,"DT, detection threshold",[20],10.1 ± 0.3^d BU
same,"H, hedonic value",[20],−3 ± 2^a %
same,"ME, magnitude estimation",[20],6 ± 2^a %
same,"RT, recognition threshold",[20],11.4 ± 0.2^ BU
same,"DT, detection threshold",[21],6.5 ± 0.3^ BU
same,"H, hedonic value",[21],−19 ± 2^ %
same,"ME, magnitude estimation",[21],27 ± 2^ %
same,"RT, recognition threshold",[21],8.2 ± 0.3^a BU
same,"DT, detection threshold",[22],3.2 ± 0.8 BU
same,"H, hedonic value",[22],−40 ± 18%
same,"ME, magnitude estimation",[22],47 ± 15%
same,"RT, recognition threshold",[22],3.8 ± 0.6 BU
same,ME increases,[23],12%
same,increases in H values,[23],7%
same,"DT, detection threshold",[24],6.8 ± 0.4^c BU
same,"H, hedonic estimation",[24],−19 ± 2^d %
same,"ME, magnitude estimation",[24],26 ± 2^c %
same,"RT, recognition threshold",[24],8.4 ± 0.3^a BU
same,"DT, detection threshold",[25],9.8 ± 0.5^a BU
same,"H, hedonic value",[25],−5 ± 2^a %
same,"ME, magnitude estimation",[25],7 ± 2^a %
same,"RT, recognition threshold",[25],10.8 ± 0.4^ BU
same,"DT, detection threshold",[26],5.7 ± 0.4^ BU
same,"H, hedonic value",[26],−23 ± 3^ %
same,"ME, magnitude estimation",[26],31 ± 3^ %
same,"RT, recognition threshold",[26],7.6 ± 0.4^a BU
same,"DT, detection threshold",[27],1 BU
same,"H, hedonic value",[27],−99%
same,"ME, magnitude estimation",[27],99%
same,"RT, recognition threshold",[27],1 BU
same,"DT, detection threshold",[28],7.1 ± 0.3^a BU
same,"H, hedonic estimation",[28],−14 ± 2 ^ %
same,"ME, magnitude estimation",[28],21 ± 2^d %
same,"RT, recognition threshold",[28],9.0 ± 0.3^c BU
same,"DT, detection threshold",[29],9.4 ± 0.4^a BU
same,"H, hedonic value",[29],−3 ± 2^a %
same,"ME, magnitude estimation",[29],7 ± 2^a %
same,"RT, recognition threshold",[29],10.9 ± 0.3^d BU
same,"DT, detection threshold",[30],6.1 ± 0.3^a BU
same,"H, hedonic value",[30],−20 ± 2^ %
same,"ME, magnitude estimation",[30],27 ± 2^ %
same,"RT, recognition threshold",[30],8.1 ± 0.3^a BU
same,"DT, detection threshold",[31],2.0 ± 1.0 BU
same,"H, hedonic value",[31],−35 ± 24%
same,"ME, magnitude estimation",[31],42 ± 20%
same,"RT, recognition threshold",[31],3.8 ± 0.9 BU
same,"DT, detection threshold",[32],7.2 ± 0.7 BU
same,"H, hedonic estimation",[32],−15 ± 4%
same,"ME, magnitude estimation",[32],20 ± 4%
same,"RT, recognition threshold",[32],9.6 ± 0.6 BU
same,"DT, detection threshold",[33],10.0 ± 0.7^ BU
same,"H, hedonic value",[33],−4 ± 2^a %
same,"ME, magnitude estimation",[33],4 ± 2^a %
same,"RT, recognition threshold",[33],11.6 ± 0.2^ BU
same,"DT, detection threshold",[34],4.9 ± 0.7^a BU
same,"H, hedonic value",[34],−24 ± 8^ %
same,"ME, magnitude estimation",[34],33 ± 6^ %
same,"RT, recognition threshold",[34],8.0 ± 1.0^ BU
